{"source": "patent EP2826473A1", "about": "“NOVEL USE OF PATCHOULOL” (Chengdu Huasun Group Inc., Ltd., priority 2012, dated 2013)", "assay_type_in_all_cases": "cell-based", "key": {"[1]": {"test_system": "Staphylococcus aureus MSSA", "assay": "in vitro bacteriostatic activity, agar dilution MIC", "details": "Staphylococcus aureus, MSSA"}, "[2]": {"test_system": "Staphylococcus epidermidis MSSE", "assay": "in vitro bacteriostatic activity, agar dilution MIC"}, "Enterococcus faecalis": {"test_system": "Enterococcus faecalis", "assay": "in vitro bacteriostatic activity, agar dilution MIC", "details": "Enterococcus faecalis, read-out: MIC"}, "Enterococcus faecium": {"test_system": "Enterococcus faecium", "assay": "in vitro bacteriostatic activity, agar dilution MIC", "details": "Enterococcus faecium, read-out: MIC"}, "[3]": {"test_system": "Staphylococcus aureus MRSA", "assay": "in vitro bacteriostatic activity, agar dilution MIC", "details": "MRSA"}, "[4]": {"test_system": "Staphylococcus epidermidis MRSE", "assay": "in vitro bacteriostatic activity, agar dilution MIC"}, "Streptococcus pneumoniae": {"test_system": "Streptococcus pneumoniae", "assay": "in vitro bacteriostatic activity, agar dilution MIC"}, "Escherichia coli E^-": {"test_system": "Escherichia coli E^-", "assay": "in vitro bacteriostatic activity, agar dilution MIC"}, "Klebsiella pneumonia E^-": {"test_system": "Klebsiella pneumonia E^-", "assay": "in vitro bacteriostatic activity, agar dilution MIC"}, "Klebsiella pneumonia E^+": {"test_system": "Klebsiella pneumonia E^+", "assay": "in vitro bacteriostatic activity, agar dilution MIC", "details": "Klebsiella pneumoniae"}, "[5]": {"test_system": "Staphylococcus epidermidis ATCC 12228", "assay": "in vitro bacteriostatic activity, agar dilution MIC, quality control strain", "details": "Staphylococcus epidermidis, ATCC12228"}, "Staphylococcus aureus": {"test_system": "Staphylococcus aureus", "assay": "in vitro bacteriostatic activity, agar dilution MIC, quality control strains", "details": "ATCC25923; Staphylococcus aureus ATCC 25923; read-out: MIC"}, "Escherichia coli": {"test_system": "Escherichia coli", "assay": "in vitro bacteriostatic activity, agar dilution MIC, quality control strain and summary", "details": "ATCC25922; Escherichia coli ATCC 25922; read-out: MIC"}, "Klebsiella pneumonia": {"test_system": "Klebsiella pneumonia", "assay": "in vitro bacteriostatic activity, agar dilution MIC, quality control strain and summary", "details": "Klebsiella pneumoniae, ATCC700603; Klebsiella pneumonia ATCC 700603; read-out: MIC"}}, "note": "Where a name gives a salt, the structure may show the parent alone. Read-outs that look alike come from different tables or passages of the source.", "data": [{"smiles": "C[C@H]1COc2c(N3CCN(C)CC3)c(F)cc3c(=O)c(C(=O)O)cn1c23", "note": "[levofloxacin, Levofloxacin hydrochloride]", "values": [{"measurement": "MIC", "setting": "[1]; Staphylococcus aureus MSSA 10-38, read-out: MIC", "value": 0.1, "unit": "µg/mL"}, {"measurement": "MIC", "setting": "[1]; Staphylococcus aureus MSSA 10-40, read-out: MIC", "value": 0.1, "unit": "µg/mL"}, {"measurement": "MIC", "setting": "[1]; Staphylococcus aureus MSSA 10-41, read-out: MIC", "value": 0.1, "unit": "µg/mL"}, {"measurement": "MIC", "setting": "[1]; Staphylococcus aureus MSSA 12-11", "value": 0.125, "unit": "µg/mL"}, {"measurement": "MIC", "setting": "[1]; Staphylococcus aureus MSSA 12-13", "value": 0.125, "unit": "µg/mL"}, {"measurement": "MIC", "setting": "[1]; Staphylococcus aureus MSSA 12-14", "value": 0.125, "unit": "µg/mL"}, {"measurement": "MIC", "setting": "[1]; Staphylococcus aureus MSSA 12-15", "value": 0.125, "unit": "µg/mL"}, {"measurement": "MIC", "setting": "[1]; Staphylococcus aureus MSSA 12-16, read-out: MIC", "value": 0.06, "unit": "µg/mL"}, {"measurement": "MIC", "setting": "[1]; Staphylococcus aureus MSSA 12-17, read-out: MIC", "value": 0.06, "unit": "µg/mL"}, {"measurement": "MIC", "setting": "[1]; Staphylococcus aureus MSSA 12-18", "value": 0.125, "unit": "µg/mL"}, {"measurement": "MIC", "setting": "[1]; Staphylococcus aureus MSSA 12-19, read-out: MIC", "value": 0.06, "unit": "µg/mL"}, {"measurement": "MIC", "setting": "[1]; Staphylococcus aureus MSSA 12-20", "value": 0.125, "unit": "µg/mL"}, {"measurement": "MIC", "setting": "[1]; Staphylococcus aureus MSSA 12-21", "value": 0.125, "unit": "µg/mL"}, {"measurement": "MIC", "setting": "[2]; Staphylococcus epidermidis", "value": 0.125, "unit": "µg/mL"}, {"measurement": "MIC", "setting": "[2]; Staphylococcus epidermidis MSSE 12-12", "value": 0.125, "unit": "µg/mL"}, {"measurement": "MIC", "setting": "[2]; Staphylococcus epidermidis MSSE 12-16", "value": 0.125, "unit": "µg/mL"}, {"measurement": "MIC", "setting": "[2]; Staphylococcus epidermidis, Staphylococcus epidermidis MSSE 10-43, read-out: MIC", "value": 0.1, "unit": "µg/mL"}, {"measurement": "MIC", "setting": "[2]; Staphylococcus epidermidis, Staphylococcus epidermidis MSSE 10-44, read-out: MIC", "value": 3.1, "unit": "µg/mL"}, {"measurement": "MIC", "setting": "[2]; Staphylococcus epidermidis, Staphylococcus epidermidis MSSE 12-13, read-out: MIC", "value": 0.5, "unit": "µg/mL"}, {"measurement": "MIC", "setting": "[2]; Staphylococcus epidermidis, Staphylococcus epidermidis MSSE 12-14, read-out: MIC", "value": 0.5, "unit": "µg/mL"}, {"measurement": "MIC", "setting": "[2]; Staphylococcus epidermidis, Staphylococcus epidermidis MSSE 12-15, read-out: MIC", "value": 0.5, "unit": "µg/mL"}, {"measurement": "MIC", "setting": "[2]; Staphylococcus epidermidis, Staphylococcus epidermidis MSSE 12-17, read-out: MIC", "value": 0.5, "unit": "µg/mL"}, {"measurement": "MIC", "setting": "[2]; Staphylococcus epidermidis, Staphylococcus epidermidis MSSE 12-18, read-out: MIC", "value": 1, "unit": "µg/mL"}, {"measurement": "MIC", "setting": "[2]; Staphylococcus epidermidis, Staphylococcus epidermidis MSSE 12-19, read-out: MIC", "value": 0.5, "unit": "µg/mL"}, {"measurement": "MIC", "setting": "[2]; Staphylococcus epidermidis, Staphylococcus epidermidis MSSE 12-20, read-out: MIC", "value": 1, "unit": "µg/mL"}, {"measurement": "MIC", "setting": "Enterococcus faecalis; ATCC29212, Enterococcus faecalis ATCC 29212", "value": 0.25, "unit": "µg/mL"}, {"measurement": "MIC", "setting": "Enterococcus faecalis; ATCC51299, Enterococcus faecalis (high endurance) ATCC 51299", "value": 0.25, "unit": "µg/mL"}, {"measurement": "MIC", "setting": "Enterococcus faecalis; Enterococcus faecalis 12-11", "value": 16, "unit": "µg/mL"}, {"measurement": "MIC", "setting": "Enterococcus faecalis; Enterococcus faecalis 12-12", "value": 32, "unit": "µg/mL"}, {"measurement": "MIC", "setting": "Enterococcus faecalis; Enterococcus faecalis 12-13", "value": 8, "unit": "µg/mL"}, {"measurement": "MIC", "setting": "Enterococcus faecalis; Enterococcus faecalis 12-14", "value": 64, "unit": "µg/mL"}, {"measurement": "MIC", "setting": "Enterococcus faecalis; Enterococcus faecalis 12-17", "value": 0.5, "unit": "µg/mL"}, {"measurement": "MIC", "setting": "Enterococcus faecalis; Enterococcus faecalis 12-18", "value": 0.5, "unit": "µg/mL"}, {"measurement": "MIC", "setting": "Enterococcus faecalis; Enterococcus faecalis 12-19", "value": 32, "unit": "µg/mL"}, {"measurement": "MIC", "setting": "Enterococcus faecalis; Enterococcus faecalis 12-20", "value": 4, "unit": "µg/mL"}, {"measurement": "MIC", "setting": "Enterococcus faecalis; Enterococcus faecalis 12-21", "value": 4, "unit": "µg/mL"}, {"measurement": "MIC", "setting": "Enterococcus faecalis; Enterococcus faecalis 12-22", "value": 8, "unit": "µg/mL"}, {"measurement": "MIC", "setting": "Enterococcus faecium; ATCC33186, Enterococcus faecium ATCC 33186", "value": 1, "unit": "µg/mL"}, {"measurement": "MIC", "setting": "Enterococcus faecium; Enterococcus faecium 12-7", "value": 32, "unit": "µg/mL"}, {"measurement": "MIC", "setting": "Enterococcus faecium; Enterococcus faecium 12-8", "value": 64, "unit": "µg/mL"}, {"measurement": "MIC", "setting": "Enterococcus faecium; Enterococcus faecium 12-9", "value": 32, "unit": "µg/mL"}, {"measurement": "MIC", "setting": "Enterococcus faecium; Enterococcus faecium 12-10", "value": 32, "unit": "µg/mL"}, {"measurement": "MIC", "setting": "Enterococcus faecium; Enterococcus faecium 12-11", "value": 32, "unit": "µg/mL"}, {"measurement": "MIC", "setting": "Enterococcus faecium; Enterococcus faecium 12-12", "value": 64, "unit": "µg/mL"}, {"measurement": "MIC", "setting": "Enterococcus faecium; Enterococcus faecium 12-13", "value": 64, "unit": "µg/mL"}, {"measurement": "MIC", "setting": "Enterococcus faecium; Enterococcus faecium 12-14", "value": 32, "unit": "µg/mL"}, {"measurement": "MIC", "setting": "Enterococcus faecium; Enterococcus faecium 12-15", "value": 32, "unit": "µg/mL"}, {"measurement": "MIC", "setting": "Enterococcus faecium; Enterococcus faecium 12-16", "value": 64, "unit": "µg/mL"}, {"measurement": "MIC", "setting": "[3]; Staphylococcus aureus MRSA 10-31, read-out: MIC", "value": 25, "unit": "µg/mL"}, {"measurement": "MIC", "setting": "[3]; Staphylococcus aureus MRSA 10-32, read-out: MIC", "value": 12.5, "unit": "µg/mL"}, {"measurement": "MIC", "setting": "[4]; Staphylococcus epidermidis MRSE 10-40, read-out: MIC", "value": 0.1, "unit": "µg/mL"}, {"measurement": "MIC", "setting": "[4]; Staphylococcus epidermidis MRSE 10-44, read-out: MIC", "value": 3.1, "unit": "µg/mL"}, {"measurement": "MIC", "setting": "Streptococcus pneumoniae; ATCC49619, Streptococcus pneumonia ATCC 49619", "value": 0.1, "unit": "µg/mL"}, {"measurement": "MIC", "setting": "Streptococcus pneumoniae; Streptococcus pneumonia 12-6", "value": 25, "unit": "µg/mL"}, {"measurement": "MIC", "setting": "Streptococcus pneumoniae; Streptococcus pneumonia 12-7", "value": 12.5, "unit": "µg/mL"}, {"measurement": "MIC", "setting": "Streptococcus pneumoniae; Streptococcus pneumonia 12-8", "value": 25, "unit": "µg/mL"}, {"measurement": "MIC", "setting": "Streptococcus pneumoniae; Streptococcus pneumonia 12-9", "value": 25, "unit": "µg/mL"}, {"measurement": "MIC", "setting": "Streptococcus pneumoniae; Streptococcus pneumonia 12-10", "value": 12.5, "unit": "µg/mL"}, {"measurement": "MIC", "setting": "Streptococcus pneumoniae; Streptococcus pneumoniae 12-1", "value": 12.5, "unit": "µg/mL"}, {"measurement": "MIC", "setting": "Streptococcus pneumoniae; Streptococcus pneumoniae 12-2", "value": 25, "unit": "µg/mL"}, {"measurement": "MIC", "setting": "Streptococcus pneumoniae; Streptococcus pneumoniae 12-3", "value": 25, "unit": "µg/mL"}, {"measurement": "MIC", "setting": "Streptococcus pneumoniae; Streptococcus pneumoniae 12-4", "value": 25, "unit": "µg/mL"}, {"measurement": "MIC", "setting": "Streptococcus pneumoniae; Streptococcus pneumoniae 12-5", "value": 25, "unit": "µg/mL"}, {"measurement": "MIC", "setting": "Escherichia coli E^-; Escherichia coli E^- 10-12", "value": 0.1, "unit": "µg/mL"}, {"measurement": "MIC", "setting": "Escherichia coli E^-; Escherichia coli E^- 10-18", "value": 12.5, "unit": "µg/mL"}, {"measurement": "MIC", "setting": "Klebsiella pneumonia E^-; Klebsiella pneumonia E^- 10-18", "value": 0.025, "unit": "µg/mL"}, {"measurement": "MIC", "setting": "Klebsiella pneumonia E^-; Klebsiella pneumoniae, Klebsiella pneumonia E^- 10-16, read-out: MIC", "value": 0.025, "unit": "µg/mL"}, {"measurement": "MIC", "setting": "Klebsiella pneumonia E^+; Klebsiella pneumonia E^+ 10-2", "value": 12.5, "unit": "µg/mL"}, {"measurement": "MIC", "setting": "Klebsiella pneumonia E^+; Klebsiella pneumonia E^+ 10-6", "value": 0.0125, "unit": "µg/mL"}, {"measurement": "MIC", "setting": "[5]", "value": 0.125, "unit": "µg/mL"}, {"measurement": "MIC", "setting": "Staphylococcus aureus", "value": 0.1, "unit": "µg/mL"}, {"measurement": "MIC", "setting": "Escherichia coli", "value": "< 0.006", "unit": "µg/mL"}, {"measurement": "MIC", "setting": "Klebsiella pneumonia", "value": 0.39, "unit": "µg/mL"}]}]}
